Experiments:
AAV2 [1] = test: Biological titer of AAVs packaged in cells expressing a CP (GFP-positive transduced HEK293 cells); format: cell-based, adeno-associated virus; conditions: FIG. 20B; HEK293 transduction; cells expressing individual CP relative to no CP expression
Description: (§1) FIG. 20. Exemplary bar charts showing fold improvement of physical titer and/or biological titer for various CPs. […] The payload being packaged during AAV production is GFP only. The cyclic peptide generator is located on a separate DNA, is only expressed by the host cell, and is not able to be packaged. Physical titer is quantified by qPCR or ddPCR and expressed as viral genomes produced per mL (VG/ml) of AAV packaging cells and media. […] Biological titer is measured in vitro by transducing a standardized number of wild-type (WT) mammalian (HEK293) cells with diluted AAVs harvested after packaging with or without CP expression. The transductants are identified by GFP payload expression. The fold improvement is calculated by dividing the percentage of GFP expressing (transduced) cells after transduction with AAVs packaged in cells expressing a CP by the percentage of GFP expressing (transduced) cells after transduction with AAVs packaged in cells that are not expressing a CP.
HEK-293T were reseeded in a 24 well tissue culture treated plate at a density of 1-2*10^4 cells/well in 0.5 mL of DMEM with 10% FBS. Cells were cultured overnight. 10-fold serial dilutions of prepared AAV2 particle solutions using DMEM with 10% FBS were used to infect the HEK-293T cells. Dilutions ranged from 1:10 to 1:10000. On Day 3 after infection, cells were detached using Trypsin/EDTA and analyzed for eGFP expression by image-based cytometry.
(§2) 50-70% confluent HEK-293T cells (˜10^6 total cells) grown in DMEM supplemented with 5% FBS were quadruple transfected with pHelper Vector, pAAV-ZsGreenl Vector, AAVpro® Packaging Rep-Cap Plasmid (AAV2), and pTargeT Mammalian Expression Vector with cloned individual cyclic peptide generator of interest in a 1:1:1:1 molar ratio normalized to the plasmid size using JetOptimus Transfection Reagent in 100 mm TC treated petri dish. AAV preparation is conducted as described above. Biological viral titer measurement is performed as described above.
(§3) • 1. A 100-mm cell culture dish was reseeded with 4.0×10^6 Hek293T cells in high glucose DMEM culture medium supplemented with 10% FBS. • 2. One day after plating, the cells (70-80% confluence) were co-transfected with 3.2ug pRC2 which encodes Rep and Cap genes (SEQ ID NO: 1-7), 4.6ug pHelper which encodes Adenovirus helper genes (SEQ ID NO: 16-19, 22, 23), 2.2ug payload vector, and 1-100ng engineered cyclic peptide expression vector (if using). A jetOPTIMUS DNA transfection reagent i used during the transfection protocol (from Polyplus). • 3. 12-16 hours after transfection, media was replaced with low glucose DMEM culture medium supplemented with 1% FBS, 1×Glutamax, 10 mM HEPES, and 0.075% sodium bicarbonate. • 4. Cells and media were harvested 4 days after transfection and frozen in 1 mL aliquots. • 5. Frozen aliquots were thawed and lysed using AAVMax Lysis Reagent (Life Technologies, USA, A50520). 100 uL of AAVMax Lysis buffer was added to 900 uL of cell and media. Mixture was incubated for 2 hours with rotating. Debris was pelleted at 5,000xg for 15 minutes. AAV containing supernatant was collected. • 6. The physical and biological titers of the harvested AAV samples were determined by qPCR and biological viral titer measurement as described in Example 1.
The fold improvement in biological titer was calculated by dividing the percentage of GFP expressing (transduced) cells after transduction with AAVs packaged in cells expressing a CP by the percentage of GFP expressing (transduced) cells after transduction with AAVs packaged in cells that are not expressing a CP.

AAV2 [2] = test: Physical titer (qPCR or ddPCR, VG/ml) of AAVs packaged in cells expressing a CP; format: cell-based, adeno-associated virus; conditions: FIG. 20A; GFP payload; cells expressing individual CP relative to no CP expression
Description: as §1
Primers binding the eGFP reporter protein were used to measure the virus titer with quantitative polymerase chain reaction (qPCR). Before releasing the viral DNA from the particles, all extra-viral DNA was removed by digestion with DNase I. Then, the viral DNA was released by alkaline lysis. The qPCR was performed using the PowerUp™ SYBR™ Green Master Mix (Applied Biosystems), and primers against the zsGreen obtained from Integrated DNA Technologies. The extracted viral DNA and a serial dilution of a viral plasmid containing z as a standard were measured using the CFX96 Touch Real-Time PCR Detection System and the CFX Maestro Software (Bio-Rad, Hercules, CA).
as §2, §3
The physical titer fold improvement was calculated by dividing the physical titer of AAVs packaged in cells expressing a CP by the physical titer of cells that are not expressing a CP.

Substance | fold improvement in biological titer of AAVs (AAV2 [1]) | fold improvement in physical titer of AAVs (AAV2 [2])
CAAAS: engineered cyclic peptide, SEQ ID NO: 48 (cyclic; Cyclic peptide that was found to enhance AAV viral titer) | fold improvements in biological titer | fold improvements in physical titer
CADTV: engineered cyclic peptide, SEQ ID NO: 49 (cyclic; Cyclic peptide that was found to enhance AAV viral titer) | – | fold improvements in physical titer
CANMPY: engineered cyclic peptide, SEQ ID NO: 50 (cyclic; Cyclic peptide that was found to enhance AAV viral titer; We observed log10 enrichment score of 2.959, mean of 79 experimental replicates. We observed excellent mean log10 enrichment scores for this cyclic peptide across multiple AAV serotypes: AAV1_3.0; AAV2_3.1; AAV5_2.8; AAV6_2.7. This CP possesses the following motifs: POL_HYD_POL-motif; HYD_ARO_POL-motif; POL_HYD_HYD-motif.) | fold improvements in biological titer | –
CARFR: engineered cyclic peptide, SEQ ID NO: 51 (cyclic; Cyclic peptide that was found to enhance AAV viral titer) | fold improvements in biological titer | –
CETDV: engineered cyclic peptide, SEQ ID NO: 52 (cyclic; Cyclic peptide that was found to enhance AAV viral titer) | fold improvements in biological titer | –
CKDYFS: engineered cyclic peptide expressed from a generator plasmid, SEQ ID NO: 34 (cyclic; Cyclic peptide that was found to increase AAV viral titer.) | – | fold improvements in physical titer
CPKNP: engineered cyclic peptide, SEQ ID NO: 53 (cyclic; Cyclic peptide that was found to enhance AAV viral titer) | – | fold improvements in physical titer
CQSRS: engineered cyclic peptide, SEQ ID NO: 54 (cyclic; Cyclic peptide that was found to enhance AAV viral titer) | – | fold improvements in physical titer
CRRHYA: engineered cyclic peptide, SEQ ID NO: 230 | fold improvements in biological titer | –
CSVPY: engineered cyclic peptide, SEQ ID NO: 58 (cyclic; Cyclic peptide that was found to enhance AAV viral titer) | fold improvements in biological titer | –
CTCKK: engineered cyclic peptide, SEQ ID NO: 59 (cyclic; Cyclic peptide that was found to enhance AAV viral titer) | – | fold improvements in physical titer
CYSPF: engineered cyclic peptide, SEQ ID NO: 61 (cyclic; Cyclic peptide that was found to enhance AAV viral titer) | fold improvements in biological titer | –

Reference: patent publication US20230416307A1, “[…] PEPTIDES FOR ENHANCING VIRAL PRODUCTION” (Synvivia, Inc., priority 2022, published 2023)
